According to paper PMC6990405, “Synthesis and Structure–Activity relationship of 1-(5-isoquinolinesulfonyl)piperazine analogues as inhibitors of Mycobacterium tuberculosis IMPDH” (European Journal of Medicinal Chemistry, 2019):
≈ marks a conversion by molar mass, not a printed value.

system: M. tuberculosis SRMV2.6 (IMPDH Tyr487Cys); format: cell-based, Mycobacterium tuberculosis; settings: not given

| Structure (SMILES) | MIC90 against SRMV2.6 [µM] | fold more active against SRMV2.6 than wild-type M. tuberculosis [fold] |
| --- | --- | --- |
| O=C(NCCNS(=O)(=O)c1cccc2cnccc12)C1CCCCC1 [Compound 2, N-{2-[(isoquinoline-5-sulfonyl)amino]ethyl}cyclohexanecarboxamide] | >250 | – |
| CC1CN(S(=O)(=O)c2cccc3cnccc23)CCN1C(=O)C1CCCCC1 (centres unmarked) [Compound 3, Cyclohexyl[4-(isoquinoline-5-sulfonyl)-2-methylpiperazin-1-yl]methanone] | 100 (≈ 40.2 µg/mL) | – |
| O=C(NC1CCN(S(=O)(=O)c2cccc3cnccc23)CC1)C1CCCCC1 [Compound 4, N-[1-(isoquinoline-5-sulfonyl)piperidin-4-yl]cyclohexanecarboxamide] | >100 | – |
| O=C(C1CCCCC1)N1CCC(NS(=O)(=O)c2cccc3cnccc23)CC1 [Compound 5, N-[1-(cyclohexanecarbonyl)piperidin-4-yl]isoquinoline-5-sulfonamide] | >100 | – |
| Cc1cc2c(S(=O)(=O)N3CCN(C(=O)C4CCCCC4)CC3)cccc2cn1 [Compound 6, Cyclohexyl[4-(3-methylisoquinoline-5-sulfonyl)piperazin-1-yl]methanone] | >100 | – |
| O=C(C1CCCCC1)N1CCN(S(=O)(=O)c2cccc3ccccc23)CC1 [Compound 7, Cyclohexyl[4-(naphthalene-1-sulfonyl)piperazin-1-yl]methanone] | >100 | – |
| O=C(C1CCCCC1)N1CCN(S(=O)(=O)c2ccc3ccccc3c2)CC1 [Compound 8, Cyclohexyl[4-(naphthalene-2-sulfonyl)piperazin-1-yl]methanone] | >100 | – |
| O=C(NCCNS(=O)(=O)c1cccc2cnccc12)C1CC1 [Compound 9, N-{2-[(isoquinoline-5-sulfonyl)amino]ethyl}cyclopropanecarboxamide] | 100 (≈ 31.9 µg/mL) | – |
| O=C(NCCNS(=O)(=O)c1cccc2cnccc12)C1CCC1 [Compound 10, N-{2-[(isoquinoline-5-sulfonyl)amino]ethyl}cyclobutanecarboxamide] | 100 (≈ 33.3 µg/mL) | – |
| CC(C)(C)C(=O)N1CCN(S(=O)(=O)c2cccc3cnccc23)CC1 [Compound 11, 1-[4-(isoquinoline-5-sulfonyl)piperazin-1-yl]-2,2-dimethylpropan-1-one] | 100 (≈ 36.1 µg/mL) | – |
| CC1(C(=O)N2CCN(S(=O)(=O)c3cccc4cnccc34)CC2)CCCCC1 [Compound 12, [4-(isoquinoline-5-sulfonyl)piperazin-1-yl](1-methylcyclohexyl)methanone] | >250 | – |
| O=C(c1ccccc1)N1CCN(S(=O)(=O)c2cccc3cnccc23)CC1 [Compound 15, [4-(isoquinoline-5-sulfonyl)piperazin-1-yl](phenyl)methanone] | >100 | – |
| N#Cc1cccc(C(=O)N2CCN(S(=O)(=O)c3cccc4cnccc34)CC2)c1 [Compound 16, 3-[4-(isoquinoline-5-sulfonyl)piperazine-1-carbonyl]benzonitrile] | 50 (≈ 20.3 µg/mL) | – |
| N#Cc1ccc(C(=O)N2CCN(S(=O)(=O)c3cccc4cnccc34)CC2)cc1 [Compound 17, 4-[4-(isoquinoline-5-sulfonyl)piperazine-1-carbonyl]benzonitrile] | 100 (≈ 40.6 µg/mL) | – |
| O=C(c1cc([N+](=O)[O-])cc([N+](=O)[O-])c1)N1CCN(S(=O)(=O)c2cccc3cnccc23)CC1 [Compound 19, [4-(isoquinoline-5-sulfonyl)piperazin-1-yl](3,5-dinitrophenyl)methanone] | 100 (≈ 47.1 µg/mL) | – |
| COc1cc(C(=O)N2CCN(S(=O)(=O)c3cccc4cnccc34)CC2)cc(OC)c1OC [Compound 20, [4-(isoquinoline-5-sulfonyl)piperazin-1-yl](3,4,5-trimethoxyphenyl)methanone] | >125 | – |
| O=C(NCCNS(=O)(=O)c1cccc2cnccc12)c1cc([N+](=O)[O-])cc([N+](=O)[O-])c1 [Compound 21, N-{2-[(isoquinoline-5-sulfonyl)amino]ethyl}-3,5-dinitrobenzamide] | 3.9 (≈ 1.74 µg/mL) | 4 |
| O=C(CC1CCC2(CC1)OCCO2)N1CCN(S(=O)(=O)c2cccc3cnccc23)CC1 [Compound 23, 2-(1,4-dioxaspiro[4.5]decan-8-yl)-1-[4-(isoquinoline-5-sulfonyl)piperazin-1-yl]ethan-1-one] | >250 | – |
| N#Cc1cccc(CC(=O)N2CCN(S(=O)(=O)c3cccc4cnccc34)CC2)c1 [Compound 24, 3-{2-[4-(isoquinoline-5-sulfonyl)piperazin-1-yl]-2-oxoethyl}benzonitrile] | >250 | – |
| O=C(Cc1cccc(O)c1)N1CCN(S(=O)(=O)c2cccc3cnccc23)CC1 [Compound 25, 2-(3-hydroxyphenyl)-1-[4-(isoquinoline-5-sulfonyl)piperazin-1-yl]ethan-1-one] | >250 | – |

| Structure (SMILES) | MIC90 against SRMV2.6 [µM] | fold more active against SRMV2.6 than wild-type M. tuberculosis [fold] |
| --- | --- | --- |
| COc1cccc(CC(=O)N2CCN(S(=O)(=O)c3cccc4cnccc34)CC2)c1 [Compound 26, 1-[4-(isoquinoline-5-sulfonyl)piperazin-1-yl]-2-(3-methoxyphenyl)ethan-1-one] | >250 | – |
| COc1ccc(CC(=O)N2CCN(S(=O)(=O)c3cccc4cnccc34)CC2)c(OC)c1 [Compound 27, 1-[4-(isoquinoline-5-sulfonyl)piperazin-1-yl]-2-(2,4-dimethoxyphenyl)ethan-1-one] | >250 | – |
| Cc1cccc(CC(=O)N2CCN(S(=O)(=O)c3cccc4cnccc34)CC2)c1 [Compound 28, 1-(4-(isoquinolin-5-ylsulfonyl)piperazin-1-yl)-2-(m-tolyl)ethan-1-one] | >250 | – |
| O=C(Cc1ccc(F)cc1)N1CCN(S(=O)(=O)c2cccc3cnccc23)CC1 [Compound 29, 2-(4-fluorophenyl)-1-(4-(isoquinolin-5-ylsulfonyl)piperazin-1-yl)ethan-1-one] | >100 | – |
| O=C(Cc1ccc([N+](=O)[O-])cc1)N1CCN(S(=O)(=O)c2cccc3cnccc23)CC1 [Compound 30, 1-(4-(isoquinolin-5-ylsulfonyl)piperazin-1-yl)-2-(4-nitrophenyl)ethan-1-one] | >250 | – |
| N#Cc1cccc(NC(=O)N2CCN(S(=O)(=O)c3cccc4cnccc34)CC2)c1 [Compound 31, N-(3-cyanophenyl)-4-(isoquinolin-5-ylsulfonyl)piperazine-1-carboxamide] | 31.2 (≈ 13.2 µg/mL) | – |
| O=C(Nc1cccc(C(F)(F)F)c1)N1CCN(S(=O)(=O)c2cccc3cnccc23)CC1 [Compound 32, 4-(isoquinolin-5-ylsulfonyl)-N-(3-(trifluoromethyl)phenyl)piperazine-1-carboxamide] | 125 (≈ 58.1 µg/mL) | – |
| O=C(Nc1ccc(Cl)cc1)N1CCN(S(=O)(=O)c2cccc3cnccc23)CC1 [Compound 33, N-(4-chlorophenyl)-4-(isoquinolin-5-ylsulfonyl)piperazine-1-carboxamide] | >250 | – |
| O=C(Nc1ccc(Cl)c(C(F)(F)F)c1)N1CCN(S(=O)(=O)c2cccc3cnccc23)CC1 [Compound 34, N-(4-chloro-3-(trifluoromethyl)phenyl)-4-(isoquinolin-5-ylsulfonyl)piperazine-1-carboxamide] | 50 (≈ 24.9 µg/mL) | – |
| O=C(Nc1ccc(Cl)c([N+](=O)[O-])c1)N1CCN(S(=O)(=O)c2cccc3cnccc23)CC1 [Compound 35, N-(4-chloro-3-nitrophenyl)-4-(isoquinolin-5-ylsulfonyl)piperazine-1-carboxamide] | >100 | – |
| O=C(Nc1ccc(F)c(Cl)c1)N1CCN(S(=O)(=O)c2cccc3cnccc23)CC1 [Compound 36, N-(3-chloro-4-fluorophenyl)-4-(isoquinolin-5-ylsulfonyl)piperazine-1-carboxamide] | 62.5 (≈ 28.1 µg/mL) | – |
| O=C(Nc1cccc(Cl)c1Cl)N1CCN(S(=O)(=O)c2cccc3cnccc23)CC1 [Compound 37, N-(2,3-dichlorophenyl)-4-(isoquinolin-5-ylsulfonyl)piperazine-1-carboxamide] | >250 | – |
| Cc1ccc(NC(=O)N2CCN(S(=O)(=O)c3cccc4cnccc34)CC2)cc1Cl [Compound 38, N-(3-chloro-4-methylphenyl)-4-(isoquinolin-5-ylsulfonyl)piperazine-1-carboxamide] | 100 (≈ 44.5 µg/mL) | – |
| Cc1ccc(NC(=O)N2CCN(S(=O)(=O)c3cccc4cnccc34)CC2)c([N+](=O)[O-])c1 [Compound 39, 4-(isoquinolin-5-ylsulfonyl)-N-(4-methyl-2-nitrophenyl)piperazine-1-carboxamide] | 25 (≈ 11.4 µg/mL) | – |
| Cc1cccc(Cl)c1NC(=O)N1CCN(S(=O)(=O)c2cccc3cnccc23)CC1 [Compound 40, N-(2-chloro-6-methylphenyl)-4-(isoquinolin-5-ylsulfonyl)piperazine-1-carboxamide] | >250 | – |
| O=C(Nc1ccc2c(c1)OCO2)N1CCN(S(=O)(=O)c2cccc3cnccc23)CC1 [Compound 41, N-(benzo[d][1,3]dioxol-5-yl)-4-(isoquinolin-5-ylsulfonyl)piperazine-1-carboxamide] | >100 | – |
| O=S(=O)(c1cccc2cnccc12)N1CCN(C(=S)Nc2ccc3c(c2)OCO3)CC1 [Compound 42, N-(benzo[d][1,3]dioxol-5-yl)-4-(isoquinolin-5-ylsulfonyl)piperazine-1-carbothioamide] | >100 | – |
| O=C(Nc1ccc2c(c1)OCO2)N1CCC(NS(=O)(=O)c2cccc3cnccc23)CC1 [Compound 43, 4-[(isoquinoline-5-sulfonyl)amino]-N-(2H-1,3-benzodioxol-5-yl)piperidine-1-carboxamide] | >100 | – |
| O=C(OCc1ccccc1)N1CCN(S(=O)(=O)c2cccc3cnccc23)CC1 [Compound 49, Benzyl 4-(isoquinolin-5-ylsulfonyl)piperazine-1-carboxylate] | 100 (≈ 41.1 µg/mL) | – |

system: M. tuberculosis guaB2 cKD mutant; format: cell-based; settings: increase in potency against guaB2 cKD mutant upon guaB2 silencing

| Structure (SMILES) | Hyper-sensitivity to guaB2 cKD |
| --- | --- |
| COc1cccc(CNC(=O)N2CCN(S(=O)(=O)c3cccc4cnccc34)CC2)c1 [Compound 47, 4-(isoquinolin-5-ylsulfonyl)-N-(3-methoxybenzyl)piperazine-1-carboxamide] | 8-fold |
